Test results taken from PubChem BioAssay (NCI).
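Dose response: 5 concentrations. Exposure: 48 h. Format: 96-well plates. Endpoint: linear interpolation; highest concentration if not reached. At the GI50, growth is halved. TGI: concentration producing complete growth inhibition.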

What was measured:
Assay in all cases: inhibition of tumour cell growth, NCI panel, 48 h
SF-295 CNS = system: SF-295 CNS
HT29 colon = system: HT29 colon
DU-145 prostate = system: DU-145 prostate
MCF7 breast = system: MCF7 breast
EKVX NSCLC = system: EKVX NSCLC
SNB-19 CNS = system: SNB-19 CNS
HS 578T breast = system: HS 578T breast
T-47D breast = system: T-47D breast
HCT-15 colon = system: HCT-15 colon
MDA-MB-435 = system: MDA-MB-435
SN12C renal = system: SN12C renal
K-562 leukemia = system: K-562 leukemia
786-0 renal = system: 786-0 renal
TK-10 renal = system: TK-10 renal
MDA-MB-231 breast = system: MDA-MB-231 breast
UO-31 renal = system: UO-31 renal
RXF 393 renal = system: RXF 393 renal
OVCAR-8 ovarian = system: OVCAR-8 ovarian
HCC-2998 colon = system: HCC-2998 colon
NCI-H460 lung = system: NCI-H460 lung
A498 renal = system: A498 renal
MOLT-4 leukemia = system: MOLT-4 leukemia
A549 NSCLC = system: A549 NSCLC
LOX IMVI melanoma = system: LOX IMVI melanoma
KM12 colon = system: KM12 colon
BT-549 breast = system: BT-549 breast
UACC-257 melanoma = system: UACC-257 melanoma
SR leukemia = system: SR leukemia
SW-620 colon = system: SW-620 colon
SK-MEL-2 melanoma = system: SK-MEL-2 melanoma
SK-MEL-5 melanoma = system: SK-MEL-5 melanoma
SK-MEL-28 melanoma = system: SK-MEL-28 melanoma
HOP-92 NSCLC = system: HOP-92 NSCLC
SK-OV-3 ovarian = system: SK-OV-3 ovarian
NCI-H226 lung = system: NCI-H226 lung
NCI-H522 lung = system: NCI-H522 lung
OVCAR-4 ovarian = system: OVCAR-4 ovarian
ACHN renal = system: ACHN renal
OVCAR-3 ovarian = system: OVCAR-3 ovarian
SF-268 CNS = system: SF-268 CNS
COLO 205 colon = system: COLO 205 colon
OVCAR-5 ovarian = system: OVCAR-5 ovarian
SF-539 CNS = system: SF-539 CNS
SNB-75 CNS = system: SNB-75 CNS
HL-60(TB) leukemia = system: HL-60(TB) leukemia
NCI/ADR-RES ovarian = system: NCI/ADR-RES ovarian
HCT-116 colon = system: HCT-116 colon
UACC-62 melanoma = system: UACC-62 melanoma
CCRF-CEM leukemia = system: CCRF-CEM leukemia
CAKI-1 renal = system: CAKI-1 renal
PC-3 prostate = system: PC-3 prostate
NCI-H23 lung = system: NCI-H23 lung
U251 CNS = system: U251 CNS
IGROV1 ovarian = system: IGROV1 ovarian
HOP-62 NSCLC = system: HOP-62 NSCLC
MALME-3M melanoma = system: MALME-3M melanoma
RPMI-8226 leukemia = system: RPMI-8226 leukemia

CCC(=C(c1ccc(OCCN(C)C)cc1)c1ccc(OCCN(C)C)cc1)c1ccc(Cl)cc1
GI50 (SF-295 CNS): 3.09 µM
TGI (SF-295 CNS): 6.49 µM
GI50 (HT29 colon): 0.427 µM
TGI (HT29 colon): 1.11 µM
GI50 (DU-145 prostate): 3.11 µM
TGI (DU-145 prostate): 6.67 µM
GI50 (MCF7 breast): 0.522 µM
TGI (MCF7 breast): 1.67 µM
GI50 (EKVX NSCLC): 3.85 µM
TGI (EKVX NSCLC): 7.67 µM
GI50 (SNB-19 CNS): 2.84 µM
TGI (SNB-19 CNS): 6.29 µM
GI50 (HS 578T breast): 3.48 µM
TGI (HS 578T breast): 7.79 µM
GI50 (T-47D breast): 3.17 µM
TGI (T-47D breast): 8.03 µM
GI50 (HCT-15 colon): 0.77 µM
TGI (HCT-15 colon): 2.67 µM
GI50 (MDA-MB-435): 0.575 µM
TGI (MDA-MB-435): 1.41 µM
GI50 (SN12C renal): 3.76 µM
TGI (SN12C renal): 7.52 µM
GI50 (K-562 leukemia): 0.541 µM
TGI (K-562 leukemia): 1.77 µM
GI50 (786-0 renal): 3.7 µM
TGI (786-0 renal): 7.72 µM
GI50 (TK-10 renal): 4.05 µM
TGI (TK-10 renal): 7.75 µM
GI50 (MDA-MB-231 breast): 2.42 µM
TGI (MDA-MB-231 breast): 5.75 µM
GI50 (UO-31 renal): 3.23 µM
TGI (UO-31 renal): 6.6 µM
GI50 (RXF 393 renal): 0.897 µM
TGI (RXF 393 renal): 4.15 µM
GI50 (OVCAR-8 ovarian): 3.21 µM
TGI (OVCAR-8 ovarian): 6.96 µM
GI50 (HCC-2998 colon): 2.04 µM
TGI (HCC-2998 colon): 5.73 µM
GI50 (NCI-H460 lung): 2.67 µM
TGI (NCI-H460 lung): 6.03 µM
GI50 (A498 renal): 3.58 µM
TGI (A498 renal): 7.07 µM
GI50 (MOLT-4 leukemia): 0.745 µM
TGI (MOLT-4 leukemia): 2.41 µM
GI50 (A549 NSCLC): 2.56 µM
TGI (A549 NSCLC): 6.32 µM
GI50 (LOX IMVI melanoma): 0.43 µM
TGI (LOX IMVI melanoma): 0.848 µM
GI50 (KM12 colon): 2.54 µM
TGI (KM12 colon): 5.67 µM
GI50 (BT-549 breast): 4.29 µM
TGI (BT-549 breast): 8.38 µM
GI50 (UACC-257 melanoma): 3.7 µM
TGI (UACC-257 melanoma): 7.39 µM
GI50 (SR leukemia): 0.659 µM
TGI (SR leukemia): 4.74 µM
GI50 (SW-620 colon): 0.549 µM
TGI (SW-620 colon): 1.22 µM
GI50 (SK-MEL-2 melanoma): 4.48 µM
TGI (SK-MEL-2 melanoma): 8.49 µM
GI50 (SK-MEL-5 melanoma): 3.99 µM
TGI (SK-MEL-5 melanoma): 7.49 µM
GI50 (SK-MEL-28 melanoma): 0.462 µM
TGI (SK-MEL-28 melanoma): 0.888 µM
GI50 (HOP-92 NSCLC): 0.736 µM
TGI (HOP-92 NSCLC): 4.01 µM
GI50 (SK-OV-3 ovarian): 4.26 µM
TGI (SK-OV-3 ovarian): 8.08 µM
GI50 (NCI-H226 lung): 4.12 µM
TGI (NCI-H226 lung): 8.41 µM
GI50 (NCI-H522 lung): 1.96 µM
TGI (NCI-H522 lung): 5.77 µM
GI50 (OVCAR-4 ovarian): 3.39 µM
TGI (OVCAR-4 ovarian): 7.36 µM
GI50 (ACHN renal): 1.31 µM
TGI (ACHN renal): 4.33 µM
GI50 (OVCAR-3 ovarian): 0.804 µM
TGI (OVCAR-3 ovarian): 2.74 µM
GI50 (SF-268 CNS): 3.54 µM
TGI (SF-268 CNS): 7.48 µM
GI50 (COLO 205 colon): 1.14 µM
TGI (COLO 205 colon): 4.77 µM
GI50 (OVCAR-5 ovarian): 3.91 µM
TGI (OVCAR-5 ovarian): 7.56 µM
GI50 (SF-539 CNS): 2.75 µM
TGI (SF-539 CNS): 6.1 µM
GI50 (SNB-75 CNS): 3.32 µM
TGI (SNB-75 CNS): 7.53 µM
GI50 (HL-60(TB) leukemia): 0.522 µM
TGI (HL-60(TB) leukemia): 1.23 µM
GI50 (NCI/ADR-RES ovarian): 3.22 µM
TGI (NCI/ADR-RES ovarian): 6.68 µM
GI50 (HCT-116 colon): 2.58 µM
TGI (HCT-116 colon): 6.24 µM
GI50 (UACC-62 melanoma): 0.492 µM
TGI (UACC-62 melanoma): 1.12 µM
GI50 (CCRF-CEM leukemia): 0.609 µM
TGI (CCRF-CEM leukemia): 1.79 µM
GI50 (CAKI-1 renal): 3.17 µM
TGI (CAKI-1 renal): 6.48 µM
GI50 (PC-3 prostate): 1.26 µM
TGI (PC-3 prostate): 4.56 µM
GI50 (NCI-H23 lung): 3.65 µM
TGI (NCI-H23 lung): 7.26 µM
GI50 (U251 CNS): 0.67 µM
TGI (U251 CNS): 2.29 µM
GI50 (IGROV1 ovarian): 2.17 µM
TGI (IGROV1 ovarian): 5.6 µM
GI50 (HOP-62 NSCLC): 3.67 µM
TGI (HOP-62 NSCLC): 7.95 µM
GI50 (MALME-3M melanoma): 0.855 µM
TGI (MALME-3M melanoma): 3.3 µM
GI50 (RPMI-8226 leukemia): 0.598 µM
TGI (RPMI-8226 leukemia): 1.46 µM
